Source: a melting point compilation (Tetko et al.; mined from patent text by program, amines drawn as free bases though some values may be those of a salt)

SMILES	melting point [°C]
CC(=O)Nc1nc2ccc(S(=O)(=O)n3c(CCC(=O)O)cc4cc(C(F)(F)F)ccc43)cc2s1	290 to 292
COC(=O)c1cc(N)c2cc(Cc3ccc(F)cc3)cnc2c1O	114 to 115
CCN1C(=O)N(CC2CC2)c2ccc(Cl)cc2C1c1ccccc1 (configuration not stated)	88 to 90
CCn1ncc(-c2ccc3c(c2)c(C2CCN(CCN4CCNC4=O)CC2)cn3-c2ccc(F)cc2)n1	173 to 175
Nc1ccc2nc(N)sc2c1	202 to 203
Cc1ccccc1C1CCN(C2CCCCC2O)CC1 (single isomer, unassigned; (-))	116 to 118
CC(C)N(C(C)C)S(=O)(=O)N[C@@H](Cc1ccc(Oc2nccc3cnccc23)cc1)C(=O)O	112
Oc1cc2ccc(CCCCCl)cc2cc1O	54 to 59
Cc1cccc2c(=O)[nH]c(=O)[nH]c12	170
C=CCN1CCC23c4c5ccc(O)c4OC2C(C)C(=NO)CC3(O)C1C5 (configuration not stated)	128 to 129
O=C(O)c1ccccc1C(=O)c1ccc(O)c(-c2ccccc2)c1	273
C=CCSc1ccc(OC)nn1	25 to 27
O=C(NCCCS(=O)(=O)c1ccncc1)c1cccs1	124 to 125
CCOC(=O)N1CCC2(CC1)N=C(N)c1c(F)cccc1O2	114 to 116
CC(=O)Nc1c(Cl)cc(Br)c(C)c1Cl	173 to 174
CC1CCC(C(=O)N(C)C)=C2NC=CC(=O)N21 (configuration not stated)	78
CCCc1c(OCCC2Cc3cc(CC(=O)O)ccc3O2)ccc(C(C)=O)c1O (configuration not stated)	118 to 126
Nc1nc2c(s1)CC(CCN1CCN(c3ccccn3)CC1)CC2 (configuration not stated)	176 to 190
CC(C)Nc1c(-c2c(F)cc(F)cc2F)c(F)nc2nccnc12	127 to 128
O=C(Nc1ccc(-n2nc(C(F)(F)F)cc2C(F)(F)F)cc1)c1ccc(F)cc1F	126 to 128
Cc1ccc2c(c1C)OC(C(=O)O)C2 (configuration not stated)	182
CC(C)(C)OC(=O)N1CCC(C2=C(C#N)C(c3ccccc3Cl)c3c[nH]nc3N2)CC1 (configuration not stated)	> 280
Cc1cccc(C2=C(c3ccc(S(C)(=O)=O)cc3)CN(C3CC3)C2=O)c1	136 to 137
COCCNC(=O)c1cccc(-c2cccc3c2nc(Oc2ccc(Cl)c(F)c2)n3C)c1	150 to 151
COc1ccc2ccc3c(c2c1)CC(C(=O)O)CO3 (configuration not stated)	165
CCOC(=O)C(C(=O)OCC)C(N)c1ccc(Cl)cc1C(N)C(C(=O)OCC)C(=O)OCC (configuration not stated)	90 to 92

SMILES	melting point [°C]
O=C(c1cccc(Cl)c1)c1sc2cc(O)ccc2c1-c1ccccc1	215
O=C1O[C@@H](Cn2ccnn2)CN1c1ccc(-c2ccc(C(O)C3CC3)nc2)c(F)c1 (some centres not stated)	160 to 163
CC#CC1(O)CCC2C3CCC4=CC(=O)CCC4C3CCC21CCC (configuration not stated)	182 to 184
CCC(CC)Oc1cc(C)nc(Nc2c(C)cc(C)cc2C)c1	98 to 100
CN(C)CCOC(=O)CCc1c(C(=O)OCCN(C)C)[nH]c2cc(Cl)cc(Cl)c12	95 to 97
Cc1c(NCCNCC(O)COc2ccccc2)n(C)c(=O)n(C)c1=O (configuration not stated)	81 to 82
CCN(CC)Cc1ccc2cc(COc3cccc4c3CN(C3CCC(=O)NC3=O)C4=O)sc2c1 (configuration not stated)	190 to 192
O=C1Cc2cc3c(cc2C(c2ccc([N+](=O)[O-])cc2Cl)=NN1)OCO3	202 to 204
CC12CCC3C(CCC4CC=CCC43C)C1CCC2C#N (configuration not stated)	110 to 112
Cc1ccc(-c2coc3c(O)c(O)ccc3c2=O)cc1	225
CS(=O)CC(=O)c1ccc(F)cc1 (configuration not stated)	94.5 to 96
Fc1ccc(Cn2c(NC3CCN(CCSc4nc5ccccc5o4)CC3)nc3ccccc32)cc1	174
CC(C)Oc1ccn2nc(-c3ccccc3)c(-c3ccc(=O)n(C(C)C)n3)c2c1	162 to 163
c1ccc2c(NCCCCNc3nccc4ccccc34)nccc2c1	189 to 192
O=C(Oc1ccccc1)N1CCC2(CC1)c1ccccc1Sc1ccccc12	149 to 151
CC(C)(C)C(=O)c1ccc(S(=O)(=O)C[N+](=O)[O-])s1	98 to 99
OCc1nc(-c2ccc3c(c2)Nc2ccccc2S3)cs1	120 to 122
Cc1cc(C(=O)O)n(CC(F)(F)F)n1	135 to 139
CCOC(=O)CCN1C(=O)C(NC(=O)Nc2ccc(Cl)cc2)N=C(c2ccccc2)c2ccccc21 (configuration not stated)	251 to 253
Cc1cc(-n2ccnc2)c2cccc(OCc3c(Cl)ccc(S(=O)(=O)N4CCC[C@H]4C(=O)NCCCN(C)C)c3Cl)c2n1	80
NNc1cc(OCC2CCCSC2)c(Cl)cc1F (configuration not stated)	83 to 87
Cc1cc(CCCCc2cc(C)c(O)c(C(C)(C)C)c2)cc(C(C)(C)C)c1O	106 to 107
COCOc1ccccc1-c1cc(-c2ccccc2C(=O)OC)c(C#N)c(NC(=O)c2cccs2)n1	190 to 191
CC(C)Oc1ccc(N2CCCNCC2)cc1	62 to 64
CC(=O)Nc1cccc(C(C)=O)c1C(=O)O	131
C=CCOC(=O)NCc1noc([C@H](CS)NC(=O)OC(C)(C)C)n1	55 to 58

SMILES	melting point [°C]
CCOc1cc(-c2ncc3[nH]c4ccc(OCc5ccccc5)cc4c3c2COC)no1	139 to 140
COCC#Cc1cc(OC)c2ncc(C(=O)NCc3ccc(Cl)cc3)c(O)c2c1	211 to 213
CC(C)Oc1ccccc1-c1nc2ccc(C(=O)O)cc2c(=O)[nH]1	316 to 318
O=C1C(CN2CCN(CCO)CC2)CCN1c1ccc(Cl)cc1 (configuration not stated)	130 to 131
Cc1nnc(-c2ccc3occ(-c4ccc(C(C)O)cc4)c3c2)o1 (configuration not stated)	148 to 149
CCOC(=O)N1CCC(=C2c3ccc(Cl)cc3C=Cc3cccnc32)CC1	155 to 156
CC(C)Oc1c(C(N)=O)oc2ccc(O)cc12	183 to 185
O=C(O)CCCCCCCCCCCCCCC(=O)ON1C(=O)CCC1=O	118 to 121
CC(C)n1nc(-c2cc(C(=O)O)c(=O)[nH]c2-c2ccccc2)ccc1=O	212 to 215
Cc1ncc2c(n1)-c1ccc(Cl)cc1C(c1ccccc1Cl)N(C)C2 (configuration not stated)	155 to 156
CON=C(OC)C(=O)c1ncsc1C	65
Nc1nnc(SCC(CS(=O)(=O)c2ccc(-c3ccc(Cl)cc3)cc2)C(=O)O)s1 (configuration not stated)	184 to 186
O=c1c2ccccc2sc2ccc(O)cc12	232 to 241
CCNc1nc2ccccc2s1	93
CN(C)c1cccc2c1C(=O)N(C1(C(N)=O)CCCCC1)C2=O	166 to 169
OCCCSC(=S)Nc1ccccn1	93
Cc1nc(-c2ccc(C(F)(F)F)cc2)sc1CN(C)c1ccc(OCC(=O)O)c(F)c1	113 to 114
CC(=O)NC1COc2c(C)ccc(N)c2C1=O (configuration not stated)	178 to 180
O=C1c2ccccc2-c2c(Cl)nc3ccccc3c21	149 to 150
COc1cc2cc(C(=O)C(C)CC#N)sc2cc1OC (configuration not stated)	148 to 150
c1ccc(OCCSCc2nnc(-c3ccc(OCCCN4CCCCC4)cc3)o2)cc1	65
O=C1c2c(OCc3ccccc3)cccc2-c2nn(CCN(CCO)Cc3ccccc3)c3ccc(NCCNCCO)c1c23	134 to 137
Cc1ccc(NC(=O)NCc2ccc3c(c2)C(=O)N(C2(C)CCC(=O)NC2=O)C3=O)cc1Cl (configuration not stated)	232 to 234
CN(C)C1CCC(c2cc3ccccc3c(=O)[nH]2)CC1 (configuration not stated)	256 to 258
CCC(CO)Nc1cc(C)nc(Oc2c(C)cc(Cl)cc2C)c1C(=O)OC (configuration not stated)	122 to 124
NC(=O)c1ccc(-c2cnc3c(c2)N(Cc2ccccc2)C(=O)CN3)cc1	> 200

SMILES	melting point [°C]
COc1cc(-c2ccccc2)c(C=O)cc1CC(=O)O	174 to 175
CS(=O)(=O)C(=C1CN(C(c2ccccc2)c2ccccc2)C1)c1cc(C(F)(F)F)cc(C(F)(F)F)c1	192
O=C1NC(=O)c2ccc(Br)cc2/C1=C/NCc1cccnc1	299 to 300
Cc1ccccc1OCC1CO1 (configuration not stated)	114 to 116
O=C(Nc1cn(C2CCCCO2)nc1C(=O)NCCNc1ccccc1)c1ccccn1 (configuration not stated)	182 to 183
N#Cc1cnn2c(C(F)(F)F)cc(-c3ccc(F)c(C(F)(F)F)c3)nc12	204
COc1cc2c(Nc3ccc(Oc4ccccc4)cc3)c(C#N)cnc2cc1OCCCl	148 to 151
CCC(CC)Oc1nn(C)c(=O)c2c1ccn2-c1c(C)cc(C)cc1C	87 to 88
Cn1ncc(-c2ccccn2)c1S(N)(=O)=O	113 to 114
CC1CC2=C(Cc3ccccc32)C([Si](C)(C)C2CC(C)CC3=C2Cc2ccccc23)C1 (configuration not stated)	179 to 180
O=C(O)Cn1c(=O)[nH]c(=O)c2ccc(Cl)cc21	306
CN1C(=O)C(=CN2CCOCC2)N=C(c2ccccc2Cl)c2cc(F)ccc21	110 to 115
O=C(NC(C(=O)O)c1ccccc1)c1ccccc1SSc1ccccc1C(=O)NC(C(=O)O)c1ccccc1 (configuration not stated)	231 to 232
Cc1cccc(NC(=O)c2ccccc2C)c1	145 to 146
Cn1ccc(-c2ccc(C(=O)O)c(Cl)c2)n1	232 to 233
C#CCn1ccc2ccccc2c1=O	104 to 105
O=C(Oc1ccccc1)N1Cc2ccccc2C(c2ccccc2Cl)c2ccccc21 (configuration not stated)	95 to 99
CC(=Nc1ccccc1)NC(=S)NCc1cccnc1	143 to 144
O=C(NCCO)c1cccc(-c2cccc3cn(Cc4cccc(C(F)(F)F)c4)nc23)c1	136 to 137
Cc1ccc2cccc(OCc3c(C)ccc([N+](=O)[O-])c3C)c2n1	150 to 152
C=CC(O)C(NC=O)C(=O)OCC (configuration not stated)	50 to 51
COC(=O)c1ccc(C(=O)NNC(=O)c2ccc(C(=O)OC)cc2)cc1	287 to 290
COc1c(Cl)cc(C(C)(C)N(CC(C)=O)C(=O)Cc2ccccc2)cc1Cl	126 to 127
COc1ccc(-c2[nH]cnc2-c2cc(OC)c(Br)c(OC)c2)cc1N	160 to 162
